From US20260309717A1, “PROXIMITY INDUCING SYSTEM AND USES THEREOF” (SORBONNE UNIVERSITE, priority 2022, published 2026)

Target: T1, mCherry-^FIREtag / ^FIREmate-ECFP-Giantin (Halorhodospira halophila, UniProt P16113, A30V/C69G/D97P/F96I, form not given/G21E/G25R/K17N/M100R/M109L/Q41L/Q99S/S72T/T101G/V83A/Y94W/Y98T)
T1 construct: FIREmate-ECFP-Giantin(3131-3259) and mCherry-FIREtag in HeLa cells
T1 sequence (P16113 1-114 A30V/C69G/D97P/F96I/G21E/G25R/K17N/M100R/M109L/Q41L/Q99S/S72T/T101G/V83A/Y94W/Y98T): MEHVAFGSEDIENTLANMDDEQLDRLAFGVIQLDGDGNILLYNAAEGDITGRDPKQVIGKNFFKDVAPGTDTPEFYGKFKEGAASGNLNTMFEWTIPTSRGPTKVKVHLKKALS
Experiment: Reversibility of the ternary assembly (washout), time-lapse spinning-disk confocal microscopy, HeLa cells
Assay type: cell-based
Conditions: 10 μM
Protocol: HeLa cells co-expressing mCherry-^FIREtag and ^FIREmate-ECFP-Giantin were treated with 10 μM HBR-2,5DM (match1), washed with HBR-2,5DM-free medium and then treated with 10 μM HBIR-3M. Cells were imaged by time-lapse spinning-disk confocal microscopy. FIGS. 9A-D are sets of representative confocal micrographs of untreated cells (9A), cells after addition of HBR-2,5DM (match1) (9B), cells after washout of HBR-2,5DM (match1) (9C), and cells after addition of HBIR-3M (9D). (mCherry: ex/em 561/606-675 nm; FIRE: ex/em 488/508-570 nm). Scale bars are 10 μm.
To test whether formation of the fluorescent ternary assembly could be reversed though removal of the fluorogen, the fusion proteins mCherry-^FIREtag (red fluorescence) and ^FIREmate-ECFP-Giantin (blue fluorescence) were co-expressed in Hela cells (FIG. 9A). Formation of a fluorescent ternary assembly between ^FIREtag, ^FIREmate and HBR-2,5DM was induced by addition of 10 μM of HBR-2,5DM (FIG. 9B). […] The ability to reverse the fluorescence ternary assembly at will allowed to induce repeated catch and release cycles through sequential addition and removal of HBR-2,5DM. The ability to control protein proximity through addition and removal of a molecular inducer of proximity is unprecedented and opens great prospect to control the proximity of two proteins with high temporal resolution.

Question: How did the “dissociation of the fluorescent ternary assembly after washout” value (then washing with HBR-2,5DM-free medium) turn out when `Cc1cc(/C=C2\SC(=S)NC2=O)c(C)cc1O` [HBR-2,5DM, (Z)-5-(4-hydroxy-2,5-dimethylbenzylidene)-2-thioxo-1,3-thiazolidin-4-one] was run?
Answer: The value was “rapid dissociation of the fluorescent ternary assembly”.

Question: What about the “reversibility of the fluorescent ternary assembly” value (then washout) of the same molecule?
Answer: The value was “full reversibility”.
